The source of these data is PubChem BioAssay (NCI).

“And” between values parts separate entries of the source, which are not always exact repeats. Equal values may be shown once.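 Exposure lasted 48 hours, with cells grown in 96-well plates and compounds tested at five concentrations. Abbreviation: GI50, concentration required for 50% inhibition of growth. At the TGI there is no net growth.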

Test systems include DMS 273 small cell lung; DLD-1 colon; KM20L2 colon; HOP-18 NSCLC; SNB-78 CNS; P388/ADR leukemia; P388 leukemia; SN12K1 renal; MDA-N; DMS 114 small cell lung; LXFL 529 NSCLC; RXF-631 renal.
Holding throughout (test): NCI tumour cell line growth inhibition, 48 h

For the compound `CC(C)[Si](OCC1CC(C#N)OC(C)(C)O1)(C(C)C)C(C)C` (centres undefined), the TGI in the test with DMS 273 small cell lung was 35.8 µM; with DLD-1 colon, above 100 µM; in the test on KM20L2 colon, 65.8 µM; with HOP-18 NSCLC, above 100 µM; in the test on SNB-78 CNS, 52.1 µM.

As for `CC(/C=N/N=C(N)N)=N\N=C(N)N`, the TGI in the test with DMS 273 small cell lung came to 650 µM; in the test on P388/ADR leukemia, 352 µM; in the test with P388 leukemia, 39.8 µM; with SN12K1 renal, 30.1 µM; with MDA-N, 354 µM; in the test with DLD-1 colon it was 2500 µM. Also, the TGI turned out to be 171 µM in the test with DMS 114 small cell lung, 411 µM in the test with KM20L2 colon, 2060 µM in the test on HOP-18 NSCLC and 147 µM in the test on SNB-78 CNS. The GI50 was 26.8 µM with MDA-N, 95.4 µM with DMS 114 small cell lung and 47.6 µM with KM20L2 colon.

Regarding `Cc1noc(/N=C2\C=C(Nc3onc(C)c3C)C(=O)c3ccccc32)c1C`, the TGI with LXFL 529 NSCLC, in the test with DMS 273 small cell lung, in the test with DLD-1 colon, in the test on RXF-631 renal, in the test with DMS 114 small cell lung and in the test on KM20L2 colon was above 100 µM each time. Besides, the TGI in the test on HOP-18 NSCLC and in the test with SNB-78 CNS was above 100 µM each time.

With `N#C/C(=C\c1ccc2[nH]ccc2c1)C(=O)c1ccc(O)c(O)c1`, the TGI in the test on LXFL 529 NSCLC, with DMS 273 small cell lung, in the test with MDA-N, with DLD-1 colon, with DMS 114 small cell lung and with KM20L2 colon was above 100 µM each time. In addition, the TGI with HOP-18 NSCLC and in the test on SNB-78 CNS was above 100 µM throughout.

`O=S(=O)(O)SCCNCCCCCC1CCCCC1` gave a TGI in the test with MDA-N of 26.1 µM.

Take `Nc1ccn(C2OC(C(OC3OC(CO)C(O)C(N)C3O)C(O)C(O)C(O)C(O)CO)C(N)C(O)C2O)c(=O)n1` (centres undefined): the TGI with MDA-N was above 100 µM.

`O=CCCCC(Sc1ccccc1)Sc1ccccc1`: the TGI is 25.6 µM in the test with LXFL 529 NSCLC; 33.9 µM in the test on DMS 273 small cell lung; 31.6 µM in the test on DLD-1 colon; 40 µM in the test with RXF-631 renal; 49 µM in the test with DMS 114 small cell lung; above 100 µM in the test on KM20L2 colon. This compound yielded a TGI in the test on SNB-78 CNS of 37.7 µM.

Consider `COc1ccc(NC(=O)C2C(=O)N(c3ccc(OC)cc3)C(=O)/C2=N\NC(N)=O)cc1` (centres undefined), for which the TGI with LXFL 529 NSCLC is above 100 µM; in the test with DMS 273 small cell lung, above 100 µM; with DMS 114 small cell lung, above 100 µM; in the test on KM20L2 colon it was above 100 µM; with HOP-18 NSCLC, 70.7 µM; in the test with SNB-78 CNS, above 100 µM.

Consider `CC(=O)NC(CCCN(Cc1ccccc1)C(=O)N(C)N=O)C(=O)NCc1ccccc1` (centres undefined), for which the TGI in the test on LXFL 529 NSCLC, in the test with DMS 273 small cell lung, in the test on DLD-1 colon, in the test with RXF-631 renal, in the test on DMS 114 small cell lung and in the test on KM20L2 colon was above 100 µM throughout. For the same compound, the TGI with SNB-78 CNS was above 100 µM.

For `CCOC(=O)CC(NC(=O)c1ccc(N=NN(C)C)cc1)C(=O)OCC` (centres undefined), the TGI with LXFL 529 NSCLC, with DMS 273 small cell lung and with DLD-1 colon was above 100 µM in each case.

Take `c1ccc(-c2nnc3nn4c(-c5ccccc5)cnnc4c3c2-c2ccccc2)cc1`: the TGI in the test with LXFL 529 NSCLC was above 100 µM; in the test with DMS 273 small cell lung, above 100 µM; with DLD-1 colon, above 100 µM; in the test with RXF-631 renal, 66.7 µM; in the test on DMS 114 small cell lung it was above 100 µM; in the test with KM20L2 colon, above 100 µM. The TGI in the test with HOP-18 NSCLC and in the test on SNB-78 CNS was above 100 µM each time.

Take `O=C(/C=C/C1C(=O)NC(=O)NC1=O)CC(=O)C(=O)Nc1cc(Cl)c(Cl)cc1Cl`: the TGI in the test with LXFL 529 NSCLC, in the test on DMS 273 small cell lung, in the test with DLD-1 colon, in the test on DMS 114 small cell lung, with KM20L2 colon and in the test on HOP-18 NSCLC was above 100 µM each time. The compound also yielded a TGI in the test with SNB-78 CNS above 100 µM.

Turning to `CC(=O)[C-](C(C)=O)c1ccccc1.CC(=O)[C-](C(C)=O)c1ccccc1.CC(=O)[C-](C(C)=O)c1ccccc1.[Cl-].[Zr+4]`, in the test with KM20L2 colon, the GI50 is above 100 µM and the TGI is above 100 µM.

In turn, `Cc1ccc(S(=O)(=O)NC(CO)C(=O)O)cc1` (centres undefined) came in with a TGI in the test with MDA-N above 100 µM.

On to `S=c1c2ccccc2c(=S)n2n1CC=CC2`, for which the TGI with LXFL 529 NSCLC, in the test on DMS 273 small cell lung, in the test with DLD-1 colon, with RXF-631 renal, with DMS 114 small cell lung and in the test with KM20L2 colon was above 100 µM each time. Further, the TGI in the test with HOP-18 NSCLC and in the test on SNB-78 CNS was above 100 µM throughout.

In the case of `CC(N1CCOCC1)C(O)(c1ccccc1)c1ccccn1` (centres undefined), the TGI in the test on MDA-N was above 100 µM.

On to `CCc1cc(Cc2ccc(C)c(NC(=O)C(=O)C3C(=O)NC(=O)NC3=O)c2CC)cc(C)c1NC(=O)C(=O)C1C(=O)NC(=O)NC1=O`, for which the TGI in the test on LXFL 529 NSCLC, in the test with DMS 273 small cell lung, with DLD-1 colon, in the test with RXF-631 renal, in the test with DMS 114 small cell lung and in the test with KM20L2 colon was above 100 µM throughout. The compound further gave a TGI in the test with SNB-78 CNS above 100 µM.

With `Cc1c2ccncc2c(C)c2c1[nH]c1ccc(Cl)cc12`, the TGI is 14 µM in the test on LXFL 529 NSCLC; 5.75 µM in the test on DMS 273 small cell lung; 10.2 µM in the test with P388/ADR leukemia; 3.91 µM in the test on P388 leukemia; 7.81 µM in the test on SN12K1 renal; 8.14 µM and 4.89 µM with DLD-1 colon. For the same compound, the TGI in the test with DMS 114 small cell lung is 6.1 µM and 13 µM; with KM20L2 colon, 9.55 µM; in the test on HOP-18 NSCLC it was 18 µM; with SNB-78 CNS, 22.5 µM and 20.4 µM. Also, the GI50 in the test on DLD-1 colon was 1.67 µM; with DMS 114 small cell lung, 2.6 µM; in the test on KM20L2 colon, 3.06 µM; with SNB-78 CNS, 3.07 µM.

Take `CC1=CC(=O)NP(=O)(C23CC4CC(CC(C4)C2)C3)N1` (centres undefined): the TGI with LXFL 529 NSCLC, in the test on DMS 273 small cell lung, with DLD-1 colon, in the test with RXF-631 renal, in the test on KM20L2 colon and with HOP-18 NSCLC was above 100 µM throughout. The compound also displayed a TGI in the test on SNB-78 CNS above 100 µM.
